Test results published in article PMC10424187, “Structure-Guided Design and Synthesis of a Pyridazinone Series of Trypanosoma cruzi Proteasome Inhibitors” (Journal of Medicinal Chemistry, 2023).
≈ marks a conversion by molar mass, not a printed value. Where “and” joins values, the source holds several entries; their conditions need not be identical. Equal entries are not always repeated.

Key:
[1] = target: Human 20S proteasome (Homo sapiens, UniProt P28074+P49721); assay: human proteasome assay (chymotrypsin-like activity, Suc-LLVY-Rho-110-DPro)
Procedure: T. cruzi and human proteasome assays
(§1) The T. cruzi proteasome was partially purified as described in the above reference and Human
(§2) 20S proteasome was purchased from Boston Biochem (now R&D Systems, catalogue number
(§3) a Tecan Fluent to titrate over 11 points in Labcyte Echo-compatible Greiner Bio-One 384 well
(§4) polypropylene microplates. Subsequently, 100 nl of test compound titrations were transferred
(§5) to black Greiner Bio-One low volume 384 well microplates using a Labcyte Echo acoustic
(§6) 50 mM HEPES pH 7.5, 150 mM sodium chloride, 5% Glycerol, 1 mM dithiothreitol, 1 mM
(§7) CHAPS in deionised, filtered water (all chemicals purchased from Sigma Aldrich). Human 20S
(§8) These enzyme solutions were prepared immediately prior to assay initiation and stored at 4 °C
(§9) To monitor the Chymotrypsin-like activity of the T. cruzi and Human 20S proteasome proteins
(§10) a self-quenched, Rhodamine 110-labelled peptide with the sequence Suc-LLVY-Rho-110-
(§11) DPro was used (prepared by Cambridge Research Biochemicals. Suc is succinyl, while DPro
(§12) refers to ᴅ-proline). The peptide was initially prepared from solid as a 10 mM solution in 100%
(§13) DMSO and stored at -20 °C. Prior to use in the assay, an aliquot was thawed at room
(§14) to twofold Km. For use with the Human 20S proteasome, the Suc-LLVY-Rho-110-DPro
(§15) peptide was diluted in assay buffer to a concentration equivalent to twofold Km, which for this
(§16) enzyme was 2 μM. The peptide solutions were protected from light and stored at 4 °C before
(§17) A Multidrop Micro (Thermo Fisher), using a low volume dispense cassette, was used to add
(§18) the assay solutions to the test compounds in the low volume 384-well microplates. Prior to
(§19) addition of proteasome solution, 5 μl of assay buffer was added to one column (containing 100
(§20) nl, 100% DMSO) to act as no enzyme control to mimic full inhibition. Subsequently, 5 μl of
(§21) proteasome solution (either T. cruzi or Human 20S) was added to all wells on the test
(§22) microplate apart from the column containing 5 μl assay buffer. The microplate was then spun
(§23) using a suitable bench top centrifuge for 1 minute at 1000 rpm, before incubation at room
(§24) Following the initial incubation, 5 μl of substrate solution was then added to all wells on the
(§25) test microplate using a Multidrop Micro equipped with a discrete low volume dispense cassette.
(§26) The test microplates were then spun for 10 seconds at 1000 rpm before being rapidly moved to
(§27) a multi-mode microplate reader, capable of monitoring fluorescence intensity. The microplate
(§28) reader used for these studies was a Tecan M1000 Pro, equipped with quad monochromators.
(§29) 530 ± 5 nm. A series of fluorescence intensity measurements were taken every 30 seconds for
(§30) Subsequently, the fluorescence intensity measurements (relative fluorescence units, RFU) were
(§31) fit to a simple linear regression model (y = A + Bx, where y refers to the fluorescence intensity
(§32) and x refers to the time in seconds) to determine the initial rate of reaction. The initial rate for
(§33) every compound concentration tested was then fit a 4-parameter logistic model: y = (A + (B -
(§34) A)) / (1 + (x / C)D), where y refers to the assay response, x refers to the inhibitor concentration,
(§35) A and B are the range values (minimum and maximum, respectively), C is the IC50 value and
(§36) D is the slope. Potency values were then reported as pIC50, which is the negative log of the
(§37) IC50 (on a molar scale). Data analysis was automated and carried out using the ActivityBase

[2] = Brain-blood ratio; type: in vivo; settings: mouse
[3] = system: T. cruzi; assay: Chronic mouse efficacy model of Chagas disease; type: in vivo, Balb/c mice; settings: 5 days at 50 mg/kg bid
Procedure: All regulated procedures on living animals were carried out under the authority of a project license issued by the Home Office under the Animals (Scientific Procedures) Act 1986, as amended in 2012 (and in compliance with EU Directive EU/2010/63). Infected animals had access to food and water ad libitum and were housed under a 12-hour light/dark photoperiod.
Animals used in these experiments were female NMRI and Balb/c mice (Harlan, UK). […]
In vivo Mouse Efficacy Studies.
The T. cruzi chronic efficacy study was run in Balb/c mice as previously described:
M.D. Lewis, A. Fortes Francisco, M.C. Taylor, J.M. Kelly, A new experimental model for assessing drug efficacy against Trypanosoma cruzi infection based on highly sensitive in vivo imaging, J. Biomol. Screen 20 (1) (2015) 36–43

[4] = system: T. cruzi; assay: T. cruzi in vitro washout assay; type: cell-based, Trypanosoma cruzi; settings: 8 days of treatment, 50-fold EC50
From the text: T. cruzi in vitro washout assay
This assay was run as previously reported:
Marco M.; Miles T.J.; Naylor C.; Osuna-Cabello M.; Paterson C.; Read K.D.; Pinto E.G.; Riley
J.; Scullion P.; Shishikura Y.; Simeons F.; Stojanovski L.; Svensen N.; Thomas J.; Wyatt P.G.;
disubstituted piperazines for the treatment of Chagas disease. […]

[5] = Mouse microsomal intrinsic clearance; type: in vitro ADME; settings: mouse liver microsomes, scaling 52.5 mg microsomal protein/g liver
Procedure: Mouse microsomal intrinsic clearance.
This assay was conducted as previously described:
J.; Reid, I. H.; Hill, A. P.;
were prepared by adding a volume (5 µL) of the 10 mM solution to a volume (195 µL) of […]

[6] = FaSSIF solubility; settings: fasted state simulated intestinal fluid
Procedure: undissolved material using a proprietary filter (Millipore Multiscreen HTS filter, 96-well
format). Samples were then drawn through the filter using vacuum. The filtrate from the above
was analysed for dissolved drug compound using a truncated UHPLC methodology. A Shimadzu Nexera X2 UHPLC system was used, with a reversed-phase column and a simple
formic acid gradient elution. The UHPLC parameters are shown below:
Mobile phase component A HPLC water plus 0.1% formic acid
Mobile phase component B HPLC acetonitrile plus 0.1% formic acid
Re-equilibration time: 0.6 min
Autosampler temperature: 25°C
Column: Hypersil Gold, C18 1.9 µm, 50 x 2.1 mm
A calibration solution was prepared in the following way: The same 10 mM solution used to
was then diluted with 50:50 acetonitrile:water to give a 50 µM solution. Aliquots (0.2, 2.0 and
5.0 µL) of this 50 µM solution were then injected onto the UHPLC system and the areas of the
resultant peaks integrated to produce a calibration line. Aliquots of the test sample filtrate (0.4
and 5.0 µL) were then injected onto the UHPLC system and the resultant peak areas for any
peaks corresponding to the test compound determined and quantified using the calibration line
(the injection volume that gave a peak area closest to the calibrated range was used for

[7] = system: intracellular T. cruzi X10/7 A1 amastigotes
[8] = Kinetic solubility by chemiluminescent nitrogen detection (CLND); type: physicochemical
[9] = In vivo blood exposure / pharmacokinetics in mice; design: species or system mouse
Procedure: Blood samples (10 μL) where taken
and 24 hours post dose samples for I.V. leg only) and mixed with two volumes of deionized water (20 μL). After suitable sample preparation, the concentration of test compound in the whole blood from treated mice was determined by UPLC-MS/MS using a Quattro Premier XE (Waters, USA). Pharmacokinetic parameters were derived from the mean blood concentration time curve using PK solutions software v 2.0 (Summit Research Services, USA).

[10] = system: P-gp (MDR1); assay: in vitro; settings: dog, MDCK-MDR1
Procedure: MDR1-MDCK Permeability assay
Bi-directional transport was assessed in the presence and absence of Pgp inhibitor GF120918
(Elacridar). MDCK-MDR1 cells (Netherlands Cancer Institute) were maintained in culture
(DMEM, Gibco Cat: 61965-026 supplemented with 1% penicillin/streptomycin, 10% FCS)
until required. For experimentation, cells were seeded onto individual transwell ’Thincerts’
(Greiner, Cat 662610) at a density of 35,000 cells/well. Cells were grown at 37 °C, 5% CO2 for
3 days. On day 4, media was replaced with fresh media and incubated for 1 hour. Prior to
experimentation, cells were incubated with Dulbeccos PBS (Gibco, 14287-080) with/without
Pgp inhibitor, 2 µM GF120918, to ensure inactivation of the Pgp transporter. Cells were then
dosed apically and basolaterally (1 µM test compound, 10 µM Lucifer Yellow (1% DMSO)
with/without 2 µM GF120918) for 1 hour. 100 mL of solution from donor and receiver wells
was removed to a 96 well deepwell plate alongside 100 mL of dosing solution. 150 µL of
acetonitrile containing internal standard (e.g., 100 ng/mL Sulfadimethoxine) was then added
to all samples prior to analysis by LC-MS/MS. Amprenavir (positive control) were run […]
a Lucifer Yellow standard curve for fluorescence determination of Lucifer Yellow
concentrations. Papp (apparent permeability) values were calculated for each compound for […]
efflux ratios (ER) determined using the following equations: […]

[11] = Brain tissue binding; type: in vitro ADME; settings: read-out: brain tissue free fraction
[12] = target: T. cruzi proteasome (Trypanosoma cruzi, UniProt V5BU39+V5C017); assay: T. cruzi proteasome assay (chymotrypsin-like activity, Suc-LLVY-Rho-110-DPro)
T. cruzi proteasome, sequence (V5BU39 entry or part of it): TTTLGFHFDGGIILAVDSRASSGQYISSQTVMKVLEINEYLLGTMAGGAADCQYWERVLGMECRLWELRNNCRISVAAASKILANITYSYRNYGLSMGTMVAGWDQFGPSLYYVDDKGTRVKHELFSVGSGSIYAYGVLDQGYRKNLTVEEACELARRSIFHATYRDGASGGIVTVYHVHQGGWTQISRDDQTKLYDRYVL
T. cruzi proteasome, sequence (V5C017 entry or part of it): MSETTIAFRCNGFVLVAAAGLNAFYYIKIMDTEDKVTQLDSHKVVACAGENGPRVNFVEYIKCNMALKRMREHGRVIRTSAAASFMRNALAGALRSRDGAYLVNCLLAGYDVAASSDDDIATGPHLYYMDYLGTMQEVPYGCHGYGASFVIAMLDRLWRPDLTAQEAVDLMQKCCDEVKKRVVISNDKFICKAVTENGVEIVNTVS
Procedure: T. cruzi and human proteasome assays
as §1, §2, §3, §4, §5, §6, §7, §8, §9, §10, §11, §12, §13, §14, §15, §16, §17, §18, §19, §20, §21, §22, §23, §24, §25, §26, §27, §28, §29, §30, §31, §32, §33, §34, §35, §36, §37

SMILES: O=C(Nc1ccc(F)c(-c2cn3nc(N4CCOCC4)cnc3n2)c1)N1CCCC1 [Compound 4]
- IC50 ([1]; Hs Prot pIC50, individual replicate): 25100 nM and 79400 nM
- Hs Prot Hill Slope ([1]; individual replicate): 1.7 and 0.9 and 1.3
- Hs Prot Max Response (%) ([1]; individual replicate): 35% and 21% and 42% and 24% and 10% and 50% and 28% and 48% and 38% and 29% and 47% and 41% and 54% and 44% and 52% and 49% and 40%
- Hs Prot pIC50 ([1]; individual replicate): < 4
- Hs Prot pIC50 ([1]; mean of at least three independent replicates): <4
- Kp [2]: 0.07
- effect on parasite levels [3]: no visible effect on parasite levels
- parasites relapsing on day [4]: 34 days
- Mouse CLi [5]: <0.5 mL/min/g
- FaSSIF solubility [6]: 32 µM
- EC50 [7]: 100 nM and 126 nM and 63.1 nM
- Emax [7]: 95% and 90% and 93% and 98% and 99% and 96% and 92% and 100%
- aqueous solubility [8]: 59 µM (≈ 24.3 µg/mL)
- predicted brain exposure relative to T. cruzi EC99 ([9]; from blood exposure in chronic efficacy model, brain-blood ratio and brain free fraction): well below T. cruzi EC99
- time blood exposure above T. cruzi EC99 ([9]; mouse VL efficacy study, 50 mg/kg, also when corrected for plasma protein binding): > 8 h
- efflux ratio at 1 h, 1 µM [10]: 22
- fraction unbound [11]: 0.043
- IC50 ([12]; Tc Prot pIC50, individual replicate): < 1.58 nM and 3.98 nM and 7.94 nM and 1.58 nM and 2.51 nM and 12.6 nM and 5.01 nM and 10 nM
- Tc Prot Hill Slope ([12]; individual replicate): 1.0 and 0.8 and 0.7 and 0.9 and 0.75 and 1.1 and 0.95
- Tc Prot Max Response (%) ([12]; individual replicate): 89% and 88% and 85% and 90% and 87%
- Emax ([12]; read-out: Tc Prot Max Response (%), individual replicate): 91%
